Counter-ions that a name gives are not always drawn.
What was measured:
[1] = system: bleomycin-induced pulmonary fibrosis; conditions: both agents from Days 14; cited from earlier work
lung fibroblasts = conditions: 800 μg/ml of AGP, in vitro; cited from earlier work
SCLC = conditions: oral 600 mg daily up to 12 months; cited from earlier work
c-kit = c-kit (Homo sapiens, UniProt P10721); conditions: cited from earlier work
[2] = system: sol elastase of CF sputum; conditions: unprocessed CF sputum directly treated; cited from earlier work
[3] = system: primary human fibroblasts; assay: PDGF-induced fibroblast proliferation (MTS assay); conditions: for Proliferation (relative proliferation), Short Duration / Proliferation (relative proliferation), Long Duration: 20 ng/mL PDGF-BB, 72 hours, MTS; for inhibiting PDGF-induced fibroblast proliferation (in words) / cytotoxicity of drug concentrations tested: 0.5 to 50 nM; for cytotoxicity of drug concentrations tested: data not shown; for IC50: read-out: fifty-percent inhibitory concentration (IC50), PDGF-induced fibroblast proliferation, short-term exposure
cancer = conditions: cited from earlier work
[4] = system: COL1A1-PDGFβ-transformed fibroblasts, DFSP and giant-cell fibrosarcoma cell cultures; conditions: in vitro and in vivo; cited from earlier work
newly diagnosed CML = conditions: cytogenetic and haematological response, time to progression; cited from earlier work
[5] = system: relapsed/refractory multiple myeloma; conditions: cited from earlier work
[6] = intravenous; cited from earlier work
[7] = biological target: T1, purified human neutrophil elastase (Homo sapiens, UniProt P08246); conditions: cited from earlier work
T1 sequence (P08246 30-247 limits assumed): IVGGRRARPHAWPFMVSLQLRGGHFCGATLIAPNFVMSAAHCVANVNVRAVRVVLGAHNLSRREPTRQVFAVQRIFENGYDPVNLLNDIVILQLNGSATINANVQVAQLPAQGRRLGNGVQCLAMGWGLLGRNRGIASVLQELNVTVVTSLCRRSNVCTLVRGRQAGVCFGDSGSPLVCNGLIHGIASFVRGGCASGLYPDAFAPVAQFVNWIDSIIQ

[8] = 0.5 nM drug 30 min pretreatment then washed
[9] = 5.0 nM drug 30 min pretreatment then washed
[10] = 50.0 nM drug 30 min pretreatment then washed
[11] = bortezomib 1.3 mg/m2 vs high-dose dexamethasone

Sequence of c-kit (P10721 26-976): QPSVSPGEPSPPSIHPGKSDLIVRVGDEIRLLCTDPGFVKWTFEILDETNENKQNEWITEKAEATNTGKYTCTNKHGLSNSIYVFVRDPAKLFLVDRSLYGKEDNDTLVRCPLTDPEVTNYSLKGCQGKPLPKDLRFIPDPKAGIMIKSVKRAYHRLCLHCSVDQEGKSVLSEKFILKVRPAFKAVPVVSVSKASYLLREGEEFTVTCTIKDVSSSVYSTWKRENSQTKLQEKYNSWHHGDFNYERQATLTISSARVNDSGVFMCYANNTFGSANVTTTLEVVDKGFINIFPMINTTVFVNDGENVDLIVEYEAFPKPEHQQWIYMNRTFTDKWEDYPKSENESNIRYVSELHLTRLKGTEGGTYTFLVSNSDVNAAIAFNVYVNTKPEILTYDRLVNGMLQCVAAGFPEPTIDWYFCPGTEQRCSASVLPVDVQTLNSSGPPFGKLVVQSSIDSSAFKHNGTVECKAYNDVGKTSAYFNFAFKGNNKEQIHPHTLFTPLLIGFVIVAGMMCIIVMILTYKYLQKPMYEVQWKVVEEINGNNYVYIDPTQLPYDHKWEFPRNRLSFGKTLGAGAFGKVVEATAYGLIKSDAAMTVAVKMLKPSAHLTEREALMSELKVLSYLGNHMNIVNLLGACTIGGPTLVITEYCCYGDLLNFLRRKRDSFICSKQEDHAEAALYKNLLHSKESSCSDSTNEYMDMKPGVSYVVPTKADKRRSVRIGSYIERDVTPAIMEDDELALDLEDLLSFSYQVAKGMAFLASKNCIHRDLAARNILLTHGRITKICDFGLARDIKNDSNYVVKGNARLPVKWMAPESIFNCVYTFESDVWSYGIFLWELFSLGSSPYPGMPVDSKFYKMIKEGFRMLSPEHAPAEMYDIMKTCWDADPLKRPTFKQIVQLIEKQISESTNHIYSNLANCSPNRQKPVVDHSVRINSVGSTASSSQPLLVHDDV

Molecule: CC[C@H]1OC(=O)[C@H](C)[C@@H](O[C@H]2C[C@@](C)(OC)[C@@H](O)[C@H](C)O2)[C@H](C)[C@@H](O[C@@H]2O[C@H](C)C[C@H](N(C)C)[C@H]2O)[C@](C)(O)C[C@@H](C)C(=O)[C@H](C)[C@@H](O)[C@]1(C)O [erythromycin]
- bleomycin-induced pulmonary fibrosis, combined use with imatinib [1]: attenuated
- concentration required to abrogate the effects of AGP (lung fibroblasts): more than 1 μM

Molecule: Cc1ccc(NC(=O)c2ccc(CN3CCN(C)CC3)cc2)cc1Nc1nccc(-c2cccnc2)n1 [imatinib mesylate]
- antitumor activity (SCLC): no observed antitumor activity
- signal transduction cascade triggered by c-kit activation (c-kit): sufficiently blocked

Molecule: DNase
- increase of sol elastase activity [2]: 190%

Molecule: CNC(=O)c1cc(Oc2ccc(NC(=O)Nc3ccc(Cl)c(C(F)(F)F)c3)cc2)ccn1 [Sorafinib, sorafinib]
- Proliferation (relative proliferation), Short Duration [3, 8]: 0.117
- Proliferation (relative proliferation), Long Duration ([3]; 0.5 nM drug kept in media): 0.313
- Proliferation (relative proliferation), Short Duration [3, 9]: −0.010
- Proliferation (relative proliferation), Long Duration ([3]; 5.0 nM drug kept in media): 0.175
- Proliferation (relative proliferation), Short Duration [3, 10]: −0.147
- Proliferation (relative proliferation), Long Duration ([3]; 50.0 nM drug kept in media): 0.130
- inhibiting PDGF-induced fibroblast proliferation (in words) [3]: dose-responsive
- cytotoxicity of drug concentrations tested [3]: not cytotoxic
- IC50 [3]: ~30 nM

Molecule: COC(=O)c1ccc2c(c1)NC(=O)/C2=C(\Nc1ccc(N(C)C(=O)CN2CCN(C)CC2)cc1)c1ccccc1 [Vargatef]
- Proliferation (relative proliferation), Short Duration [3, 8]: 0.115
- Proliferation (relative proliferation), Long Duration ([3]; 0.5 nM drug kept in media): 0.003
- Proliferation (relative proliferation), Short Duration [3, 9]: 0.011
- Proliferation (relative proliferation), Long Duration ([3]; 5.0 nM drug kept in media): −0.359
- Proliferation (relative proliferation), Short Duration [3, 10]: −0.175
- Proliferation (relative proliferation), Long Duration ([3]; 50.0 nM drug kept in media): −0.642
- inhibiting PDGF-induced fibroblast proliferation (in words) [3]: dose-responsive
- cytotoxicity of drug concentrations tested [3]: not cytotoxic
- IC50 [3]: ~3 nM

Molecule: CC[C@H]1OC(=O)[C@H](C)[C@@H](O[C@H]2C[C@@](C)(OC)[C@@H](O)[C@H](C)O2)[C@H](C)[C@@H](O[C@@H]2O[C@H](C)C[C@H](N(C)C)[C@H]2O)[C@](C)(OC)C[C@@H](C)C(=O)[C@H](C)[C@@H](O)[C@]1(C)O [clarithromycin]
- bleomycin-induced pulmonary fibrosis, combined use with imatinib [1]: attenuated
- concentration required to abrogate the effects of AGP (lung fibroblasts): > 10 µM

Molecule: N#CC1(c2ccc(NC(=O)c3cccnc3NCc3ccncc3)cc2)CCCC1 [Apatinib]
- dose limiting toxicities (cancer; 1000 mg/day): 3 of 3
- complete response (cancer; 65 cancer patients, Phase I/II): 1.54%
- partial response (cancer; 65 cancer patients, Phase I/II): 12.31%
- progressive disease (cancer; 65 cancer patients, Phase I/II): 20%
- stable disease (cancer; 65 cancer patients, Phase I/II): 66.15%
- maximum tolerated dose (cancer; human, in vivo): 850 mg/day

Molecule: Cc1ccc(NC(=O)c2ccc(CN3CCN(C)CC3)cc2)cc1Nc1nccc(-c2cccnc2)n1 [Glivec]
- effect on cells [4]: inhibited
- efficacy vs interferon and low-dose cytarabine (newly diagnosed CML): superior efficacy

Molecule: CC(C)C[C@H](NC(=O)[C@H](Cc1ccccc1)NC(=O)c1cnccn1)B(O)O [Bortezomib]
- 1-year survival [5, 11]: 80%
- median TTP [5, 11]: 6.2 months
- patients with peripheral neuropathy ([5]; human, in vivo): 30%
- clearance [6]: rapidly cleared
- time to peak concentrations [6]: about 30 minutes

Molecule: O=C(O)CCCC[C@@H](S)CCS (racemic) [DHLA, dihydrolipoic acid]
- inhibition of purified human neutrophil elastase (in words) [7]: inhibited
- increase of sol elastase activity [2]: did not increase

B1: reduced rhTrx: stable reduced form of recombinant human thioredoxin used as a single component (protein, UniProt P10599 2-105, looked up)
Thioredoxin: VKQIESKTAFQEALDAAGDKLVVVDFSATWCGPCKMIKPFFHSLSEKYSNVIFLEVDVDDCQDVASECEVKCMPTFQFFKKGQKVGEFSGANKEKLEATINELV
modifications: reduced form
- inhibition of purified human neutrophil elastase (in words) [7]: inhibited
- increase of sol elastase activity [2]: 60%

— patent publication US11980689B2 (AVALYN PHARMA INC., priority 2013, dated 2024)
